Assay results published in patent US11747335B2, “Compositions and methods for assaying platelet reactivity and treatment selection” (University of Vermont And State Agriculture College, priority 2012, dated 2023).
Entries after “also recorded” stand apart in the source; their conditions may differ. Where two headings read alike, the source gives them in different places.

Columns and labels:
FcγRIIa = experiment: Phosphorylation of FcγRIIa during platelet activation (immunoprecipitation, Western blot with anti-phosphotyrosine); type: cell-based, human
Procedure: Whole platelet lysates were prepared by the addition of an equal volume of 2× lysis buffer (2% Nonidet P-40 1, 300 mM NaCl, 50 mM Tris, 2 mM Na3VO4, halt protease and phosphatase inhibitor cocktail [Pierce Biochemicals], ph 7.3) in an ice bath for 30 min. Lysates to be used for immunoprecipitation were pre-cleared of antibodies by the addition of protein G Dynabeads (Invitrogen, Carlsbad, Calif.).
Immunoprecipitation was performed overnight at 4° C. with the use of goat anti-CD32A/C (Santa Cruz Biotechnology, Santa Cruz, Calif.) or a mouse anti-phosphotyrosine conjugated with magnetic beads (4G10, Millipore, Billerica, Mass.). When anti-CD32A/C was used, antigen-antibody complexes were isolated with the use of protein G-coated magnetic beads (Dynabeads, Invitrogen, Carlsbad, Calif.) for 3 hours. Beads with antigen-antibody complexes were washed once with 0.5× lysis buffer and twice with phosphate buffered saline. Proteins were separated from beads in sample buffer before electrophoresis and wet transfer to Immobilon FL membranes (Millipore, Billerica, Mass.). […] Bands were detected with the use of use of a Li-Cor Odyssey Infrared Imaging system (Li-Cor Biosciences, Lincoln, Nebr.) or chemiluminescence (Amersham/General Electric Healthcare, Piscataway, N.J.).

platelets [1] = experiment: Platelet activation in whole blood by flow cytometry, binding of PAC-1 (activated GP IIb-IIIa); type: cell-based, human
Source text: Volumes used minimize aggregation of platelets during activation. Activation of platelets was identified by anti-CD62-phycoerythrin (PE, identifies P-selectin) and fluorescein isothiocyanate (FITC)-conjugated PAC-1 (binds to activated GP IIb-IIIa) as described (Serrano F A, et al., Thromb J 2007; 5:7; Schneider D J, et al., Circulation 96:2877-83, 1997; Kabbani S S, et al., Circulation 2001; 104:181-6; Aggarwal A, et al., Am J Kidney Dis 2002; 40:315-22; and Schneider D J, et al., Diabetes Care, 32:944-9, 2009). Platelet expression of FcγRIIa was quantified with the use of anti-CD32-PE. For both assays (activation and quantification of expression of FcγRIIa) PE-Cy5-anti-CD42b was used as an activation independent marker of platelets. […] Fluorochrome labeled antibodies were from Becton Dickinson (San Jose, Calif.). […] Louis, Mo.), and ADP from BioData (Horsham, Pa.). […] J. et al., J Exp Med 1986; 163:826-836). The SRC kinase antagonist PP2 (EMD Biosciences) was dissolved in dimethylsulfoxide (DMSO, Sigma). Tirofiban was obtained from Merck Research Laboratories (Whitehouse Station, N.J.). […] Activation of platelets is reported as the percentage of platelets that bound an activation dependent ligand, a result that we have shown correlates directly with mean fluorescence intensity (Schneider D J, et al., Thromb Haemost 2001; 85:309-13).

platelets [2] = experiment: cells; type: cell-based, human; conditions: for fold induction at 0.5 µg/mL: Homo sapiens, Platelet
Source text: Volumes used minimize aggregation of platelets during activation. Activation of platelets was identified by anti-CD62-phycoerythrin (PE, identifies P-selectin) and fluorescein isothiocyanate (FITC)-conjugated PAC-1 (binds to activated GP IIb-IIIa) as described (Serrano F A, et al., Thromb J 2007; 5:7; Schneider D J, et al., Circulation 96:2877-83, 1997; Kabbani S S, et al., Circulation 2001; 104:181-6; Aggarwal A, et al., Am J Kidney Dis 2002; 40:315-22; and Schneider D J, et al., Diabetes Care, 32:944-9, 2009). Platelet expression of FcγRIIa was quantified with the use of anti-CD32-PE. For both assays (activation and quantification of expression of FcγRIIa) PE-Cy5-anti-CD42b was used as an activation independent marker of platelets. […] Fluorochrome labeled antibodies were from Becton Dickinson (San Jose, Calif.). […] Louis, Mo.), and ADP from BioData (Horsham, Pa.). […] J. et al., J Exp Med 1986; 163:826-836). The SRC kinase antagonist PP2 (EMD Biosciences) was dissolved in dimethylsulfoxide (DMSO, Sigma). Tirofiban was obtained from Merck Research Laboratories (Whitehouse Station, N.J.). The reaction mixture was incubated for 15 minutes at room temperature without stirring before platelets were fixed and erythrocytes lysed by addition of Optilyse-C solution (Beckman Coulter). Flow cytometric analysis was performed with the use of a Beckman Coulter FC500 (Miami, Fla.). Platelets were identified on the basis of size (forward and side scatter) and the binding of an activation independent ligand (anti-CD42b). As described, control samples to define a threshold for activation-dependent binding used non-immune IgG (Serrano F A, et al., Thromb J 2007; 5:7; Schneider D J, et al., Circulation 96:2877-83, 1997; Kabbani S S, et al., Circulation 2001; 104:181-6; Aggarwal A, et al., Am J Kidney Dis 2002; 40:315-22; and Schneider D J, et al., Diabetes Care, 32:944-9, 2009). Activation of platelets is reported as the percentage of platelets that bound an activation dependent ligand, a result that we have shown correlates directly with mean fluorescence intensity (Schneider D J, et al., Thromb Haemost 2001; 85:309-13).

[3] = tested on: human stem cell derived Megakaryocytes; experiment: Expression of FcγRIIa by human stem cell derived megakaryocytes; type: cell-based; conditions: IFNγ treatment; FIG. 11
Megakaryocyte cell line = experiment: Expression of FcγRIIa by a megakaryocyte cell line; type: cell-based; conditions: IFNγ treatment; FIG. 10

In the case of `Nc1ncnc2c1ncn2[C@@H]1O[C@H](COP(=O)(O)OP(=O)(O)O)[C@@H](O)[C@H]1O` [ADP, adenosine diphosphate], the “time after exposure at which phosphorylation of FcγRIIa was greatest” value (FcγRIIa; platelets from healthy subjects, thrombin 50 nM, convulxin 10 ng/ml, ADP 25 μM, PAF 100 nM) is reported as 3 to 5 min.
For `CC(C)(C)n1nc(-c2ccc(Cl)cc2)c2c(N)ncnc21` [PP2], the “effect of PP2 on agonist-induced platelet activation, PAC-1 binding” value (platelets [1]; PP2 20 μM vs vehicle DMSO, whole blood, healthy subjects n=7, FIG. 6A) was “inhibited activation induced by each agonist”, the “effect of PP2 on agonist-induced platelet activation, P-selectin expression” value (platelets [2]; PP2 20 μM vs vehicle DMSO, whole blood, healthy subjects n=7, FIG. 6B) was “inhibited activation induced by each agonist” and the “effect of PP2 on phosphorylation of FcγRIIa during platelet activation” value (FcγRIIa; PP2 20 μM) was “prevented phosphorylation”.
In the case of `CCCCS(=O)(=O)N[C@@H](Cc1ccc(OCCCCC2CCNCC2)cc1)C(=O)O` [tirofiban], the “effect of tirofiban on binding of PAC-1 to platelets” value (platelets [1]; tirofiban 0.5 μg/ml) is reported as “blocked completely; also recorded: abolished binding of PAC-1”, the fold induction at 0.5 µg/mL (platelets [2]; read-out: fold induction of ADP induced platelet activation by added fibrinogen after pretreatment with tirofiban) is reported as 1.2 ± 0.1 and the fold induction at 0.5 µg/mL (platelets [2]; read-out: fold induction of ADP-induced platelet activation by added Factor XIII after pretreatment with tirofiban) is reported as 0.8 ± 0.2. For the same compound, the “effect of tirofiban on platelet activation induced by goat anti-FcγRIIa” value (platelets [2]; tirofiban 0.5 μg/ml, activator goat anti-FcγRIIa) was “nor did it alter activation” and the “effect of tirofiban on agonist-induced P-selectin expression” value (platelets [2]; tirofiban 0.5 μg/ml, n=3 subjects, FIG. 5D) was “did not attenuate”.
With “IFNγ: cytokine that increases FcγRIIa expression by megakaryocytes” the “effect on expression of FcγRIIa by human stem cell derived Megakaryocytes” value [3] was “increases” and the “effect on expression of FcγRIIa by a Megakaryocyte cell line” value (Megakaryocyte cell line) was “increases”.
